From article PMC10269622, “Blapstin, a Diapause-Specific Peptide-Like Peptide from the Chinese Medicinal Beetle Blaps rhynchopetera, Has Antifungal Function” (Microbiology Spectrum, 2023)
Bridge positions count the residues as written; N and C are the ends. Ends that are not written are not given here.

Legend:
C. albicans ATCC 10231 [1] = assay: Fungus-killing kinetics (colony counting); assay type: cell-based, Candida albicans; conditions: 5× MIC, 2 × 10^5 CFU/mL in YM broth, 37°C, three independent experiments
Description: The in vitro killing curve for blapstin against C. albicans was determined as described previously with minor modifications ([66]). In brief, C. albicans ATCC 10231 was diluted to 2 × 10^5 CFU/mL with sterile YM liquid broth. Different concentrations of blapstin (1×, 5×, and 10× MIC) were added to the fungal suspension and cultured at 37°C for various periods (0, 1, 10, 30, 60, and 180 min). Colistin E (1×, 5×, and 10× MIC) was used as a positive control, and 0.9% NaCl was used as a negative control. Within the specified time interval after incubation, the fungal suspensions were diluted 1,000-fold with YM medium, and 100 μL of the diluted fungal suspension was inoculated on YM solid medium. After incubation at 37°C for 24 h, colony counting was performed and the results were expressed as CFU per milliliter.

C. albicans ATCC 10231 [2] = assay: Intracellular ROS burst, H2DCFDA probe; assay type: cell-based, Candida albicans; conditions: 1×, 8×, 32× MIC, 37°C, 30 min
Description: H2DCFDA is a cell-permeable probe for detecting intracellular ROS ([72]). C. albicans ATCC 10231 was cultured in YM medium to logarithmic stage in a constant-temperature shaking machine at 37°C, centrifuged at 1,000 × g for 5 min to remove the supernatant, and washed with normal saline three times, and then the fungal solution was diluted to an OD600 of 0.1. Different concentrations of blapstin (1× MIC, 8× MIC, 32× MIC) were added to diluted fungal suspension and incubated at 37°C for 30 min. H2O2 at 0.1 mM was used as the positive control, and 0.9% NaCl was used as the negative control. After incubation, the suspension was centrifuged at 1,000 × g for 5 min to discard the supernatant and leave the thallus precipitation. The H2DCFDA dye was dissolved with DMSO and diluted with 0.9% NaCl containing 15% DMSO to achieve a final concentration of 10 μM. The thallus precipitation was mixed with 1 mL of a […] H2DCFDA working solution to each tube, incubated at 37°C for 30 min, and then centrifuged at 1,000 × g for 5 min to remove the supernatant. […] One milliliter of 0.9% NaCl was added to each tube and analyzed with a multifunctional fluorescent enzyme labeling instrument (SynergyH1; Biotek, USA). The excitation/emission wavelengths were set at […], and the ROS burst was monitored. The experiment was repeated three times, with three biological replicates at a time.

human erythrocytes = assay: Hemolysis assay; assay type: cell-based; conditions: concentration as high as 56.25 μM, 30 min, 37°C; 1% Triton X-100 as maximum hemolysis; three independent experiments
Description: As previously reported ([65], [67]), hemolytic activity and cytotoxicity assays were performed using human erythrocytes and mouse macrophages (RAW 264.7 cells). These cells were obtained from Kunming Medical University and Cell Bank of Kunming Institute of Zoology, Chinese Academy of Sciences, respectively. To investigate the hemolytic activity, washed erythrocytes were diluted with normal saline into a suspension of 10^7 to 10^8 cells/mL and mixed with serial dilutions of blapstin (from 1.76 μM to 225 μM) at a 1:1 ratio, followed by incubation for 30 min at 37°C. Then, these erythrocytes were centrifuged for 15 min at 500 × g (Eppendorf, Germany; FA-45-24-11, 4°C). Next, the supernatant was collected, and the hemolysis rate (%) was measured to quantify the hemolysis of blapstin. The maximum hemolysis rate was determined using an equal volume of 1% Triton X-100 as a positive control, and the zero hemolysis rate was determined using sterile normal saline as a negative control. Hemolytic activity was calculated using the following formula: hemolysis rate (%) = (hemolysis of experimental group-negative control)/(hemolysis of positive control-negative control) × 100%. HC50 values were defined as the peptide concentrations causing 50% hemolysis of human erythrocytes.

[3] = Stability in human plasma (residual antifungal activity, inhibition zone); assay type: in vitro ADME; conditions: 225 μM in 100% human plasma
Description: The stability of blapstin in human plasma was assessed using a previously described method ([67]). Blapstin (225 μM) was mixed with 100% human plasma and incubated at 37°C for 0, 2, 4, 6, 8, 10, 15, and 24 h, respectively. Then, the residual antifungal activity against C. albicans ATCC 10231 for each incubation period was evaluated using an inhibition zone assay. Nutrient YM solid medium was coated with C. albicans ATCC 10231, and then 10-μL aliquots of the plasma-peptide mixture were added to sterile, 5-mm-diameter filter paper disks placed on the medium. After 24 h of incubation, the diameter of the inhibition zone against C. albicans ATCC 10231 was measured in triplicate.

ion channel = assay: Ion channel inhibition; conditions: stated in the discussion only, no method or channel given
T. rubrum = assay: Cryo-SEM membrane morphology; assay type: cell-based, Trichophyton rubrum; conditions: 1× MIC

VRVGPCDQVCSRTNPEKDECCRAHGHSGHSSCYGGRMNCYG (disulfide 6-21, 10-32, 20-39 (inferred)) [Blapstin]
Time to kill C. albicans ATCC 10231 (C. albicans ATCC 10231 [1]): less than 60 min
Change in ROS fluorescence in C. albicans (C. albicans ATCC 10231 [2]): increased
Hemolytic activity against human erythrocytes (human erythrocytes): little hemolytic activity
Residual antifungal activity after incubation in human plasma ([3]; 37°C, 24 h, inhibition zone against C. albicans ATCC 10231, triplicate): did not completely disappear
Stability in human plasma ([3]; 8 h at 37°C, inhibition zone against C. albicans ATCC 10231): high stability
Ion channel inhibition activity (ion channel): did not show ion channel inhibition activity
Membrane morphology under cryo-SEM (T. rubrum): membrane shrinkage and disruption of the plasma membrane
